Measured values as given in ChEMBL document CHEMBL4251652, “Chameleon-like behavior of indolylpiperidines in complex with cholinesterases targets: Potent butyrylcholinesterase inhibitors” (Eur J Med Chem, 2018).
Calls of active or inactive are those of the source. No cut-off for these calls is given here.

How the values were obtained:
in vitro [1] = settings: PAMPA
Description: Permeability of the compound after 2.5 hrs by PAMPA

Cholinesterase [2] = biological target: T1, Cholinesterase (Homo sapiens, UniProt P06276); experiment: Inhibition of recombinant human serum BuChE using butyrylthiocholine iodide as substrate pretreated for 5 mins followed by substrate addition measured for 5 mins by Ellman's method
Acetylcholinesterase [3] = biological target: T2, Acetylcholinesterase (Homo sapiens, UniProt P22303); experiment: Inhibition of recombinant human AChE using acetylthiocholine iodide as substrate pretreated for 5 mins followed by substrate addition measured for 5 mins by Ellman's method
in vitro [4] = settings: PAMPA; remark: listed apart in the source
Description: Permeability of the compound at 500 uM after 8 hrs by PAMPA

in vitro [5] = settings: PAMPA; remark: listed apart in the source
Description: Permeability of the compound by PAMPA

Rattus norvegicus [6] = experiment: In vivo inhibition of BuChE in Wistar rat administered ip measured after 60 mins by Ellman's method; assay type: functional, organism-based
Rattus norvegicus [7] = experiment: In vivo inhibition of BuChE in Wistar rat at 80 mg/kg, ip measured after 60 mins by Ellman's method relative to control; assay type: functional; settings: 1 h
SH-SY5Y = experiment: Cytotoxicity against human SH-SY5Y cells assessed as cell death up to […] after 24 hrs by LDH release assay; assay type: cell-based
Cholinesterase [8] = biological target: T1, Cholinesterase; experiment: Mixed-type inhibition of recombinant human serum BuChE at 0.5 to 2 nM using varying levels of butyrylthiocholine iodide as substrate pretreated for 5 mins followed by substrate addition measured for 5 mins by Lineweaver-Burk plot analysis
[9] = biological target: Cholinesterase (Equus caballus) (UniProt P81908); experiment: Binding affinity to equine serum BuChE at 20-fold excess by STD-NMR menthod
[10] = biological target: Acetylcholinesterase (Electrophorus electricus) (UniProt O42275); experiment: Binding affinity to electric eel AChE at 20-fold excess by STD-NMR menthod
[11] = biological target: Cholinesterase (Equus caballus) (UniProt P81908); experiment: Binding affinity to equine serum BuChE at 176 uM by trNOESY NMR method
[12] = biological target: Acetylcholinesterase (Electrophorus electricus) (UniProt O42275); experiment: Binding affinity to electric eel AChE at 260 uM by trNOESY NMR method
Acetylcholinesterase [13] = biological target: T2, Acetylcholinesterase; experiment: Competitive inhibition of recombinant human AChE at 1 to 10 uM using varying levels of acetylthiocholine iodide as substrate pretreated for 5 mins followed by substrate addition measured for 5 mins by Lineweaver-Burk plot analysis

T2 sequence (P22303 whole entry): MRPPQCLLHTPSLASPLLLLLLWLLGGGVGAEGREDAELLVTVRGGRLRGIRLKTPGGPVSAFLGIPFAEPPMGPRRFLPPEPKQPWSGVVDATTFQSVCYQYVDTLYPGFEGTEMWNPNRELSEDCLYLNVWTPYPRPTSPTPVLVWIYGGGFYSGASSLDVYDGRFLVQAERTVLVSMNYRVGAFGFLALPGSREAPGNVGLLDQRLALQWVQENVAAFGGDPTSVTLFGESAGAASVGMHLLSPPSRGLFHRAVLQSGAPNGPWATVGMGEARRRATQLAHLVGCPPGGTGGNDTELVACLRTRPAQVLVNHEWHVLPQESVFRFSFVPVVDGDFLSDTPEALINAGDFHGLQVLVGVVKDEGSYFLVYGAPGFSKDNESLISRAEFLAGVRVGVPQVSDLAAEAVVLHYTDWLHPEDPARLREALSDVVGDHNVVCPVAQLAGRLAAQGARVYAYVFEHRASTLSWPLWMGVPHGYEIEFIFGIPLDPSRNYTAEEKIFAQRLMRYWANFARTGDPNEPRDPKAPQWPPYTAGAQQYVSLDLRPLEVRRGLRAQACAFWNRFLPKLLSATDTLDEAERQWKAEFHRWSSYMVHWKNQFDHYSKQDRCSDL
T1 sequence (P06276 whole entry): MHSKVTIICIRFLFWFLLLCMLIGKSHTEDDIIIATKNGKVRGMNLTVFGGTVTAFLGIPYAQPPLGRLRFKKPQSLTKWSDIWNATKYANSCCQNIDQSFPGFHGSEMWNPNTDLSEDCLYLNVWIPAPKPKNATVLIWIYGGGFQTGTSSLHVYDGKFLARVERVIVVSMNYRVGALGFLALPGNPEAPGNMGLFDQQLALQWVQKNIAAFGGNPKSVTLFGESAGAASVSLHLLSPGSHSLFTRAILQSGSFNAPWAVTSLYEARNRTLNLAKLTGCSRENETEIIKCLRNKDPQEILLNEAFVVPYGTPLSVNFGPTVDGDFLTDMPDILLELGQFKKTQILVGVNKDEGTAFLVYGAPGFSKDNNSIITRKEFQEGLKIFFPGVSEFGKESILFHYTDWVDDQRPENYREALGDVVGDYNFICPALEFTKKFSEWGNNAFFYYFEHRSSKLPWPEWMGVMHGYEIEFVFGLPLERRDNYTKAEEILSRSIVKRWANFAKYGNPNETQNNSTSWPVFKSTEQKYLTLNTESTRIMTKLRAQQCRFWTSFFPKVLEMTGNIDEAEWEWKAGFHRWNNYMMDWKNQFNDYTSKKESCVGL
Acetylcholinesterase (Electrophorus electricus), sequence (O42275 24-633 limits assumed): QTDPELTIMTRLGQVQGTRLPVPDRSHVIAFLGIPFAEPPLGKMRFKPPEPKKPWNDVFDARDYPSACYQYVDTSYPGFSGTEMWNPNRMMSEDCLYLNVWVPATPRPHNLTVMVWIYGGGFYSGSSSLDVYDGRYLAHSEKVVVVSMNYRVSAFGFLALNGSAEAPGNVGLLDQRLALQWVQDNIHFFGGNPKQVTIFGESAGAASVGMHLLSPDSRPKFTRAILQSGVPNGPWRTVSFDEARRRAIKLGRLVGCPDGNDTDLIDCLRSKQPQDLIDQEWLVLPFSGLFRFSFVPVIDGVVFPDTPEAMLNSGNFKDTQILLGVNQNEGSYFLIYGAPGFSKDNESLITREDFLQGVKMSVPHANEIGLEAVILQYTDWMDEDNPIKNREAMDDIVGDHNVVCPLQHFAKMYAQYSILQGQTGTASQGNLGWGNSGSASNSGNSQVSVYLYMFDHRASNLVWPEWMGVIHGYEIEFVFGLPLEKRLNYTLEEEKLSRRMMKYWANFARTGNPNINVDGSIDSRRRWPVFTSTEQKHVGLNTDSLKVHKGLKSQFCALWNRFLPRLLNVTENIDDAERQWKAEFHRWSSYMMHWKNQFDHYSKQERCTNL
Cholinesterase (Equus caballus), sequence (P81908 whole entry): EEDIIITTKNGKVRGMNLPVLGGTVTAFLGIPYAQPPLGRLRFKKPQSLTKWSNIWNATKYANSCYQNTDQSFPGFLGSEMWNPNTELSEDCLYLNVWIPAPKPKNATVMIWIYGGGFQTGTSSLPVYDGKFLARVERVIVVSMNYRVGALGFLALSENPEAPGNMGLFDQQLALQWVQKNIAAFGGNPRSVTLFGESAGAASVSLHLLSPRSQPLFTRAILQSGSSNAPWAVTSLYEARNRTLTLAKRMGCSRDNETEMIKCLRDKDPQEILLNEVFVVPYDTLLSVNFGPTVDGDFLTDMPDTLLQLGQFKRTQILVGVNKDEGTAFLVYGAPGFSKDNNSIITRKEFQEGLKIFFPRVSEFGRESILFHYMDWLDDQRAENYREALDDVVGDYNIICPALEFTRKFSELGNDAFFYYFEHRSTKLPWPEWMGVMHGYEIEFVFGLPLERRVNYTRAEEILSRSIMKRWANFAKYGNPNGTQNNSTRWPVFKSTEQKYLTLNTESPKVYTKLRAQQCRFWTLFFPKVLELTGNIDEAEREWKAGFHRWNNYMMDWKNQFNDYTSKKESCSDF

Structure (SMILES) | Papp at 2.5 h (in vitro [1]) [×10⁻⁶ cm/s] | IC50 (Cholinesterase [2]) [nM] | IC50 (Acetylcholinesterase [3]) [nM] | Papp at 8 h, 500 µM (in vitro [4]) [×10⁻⁶ cm/s] | also measured
O=C(CCc1c[nH]c2ccccc12)NCCC1CCN(Cc2ccccc2)CC1 | 2.2 | 0.89 | 5950 | 0.7 | –
Cc1[nH]c2ccccc2c1CC(=O)NCCC1CCN(Cc2ccccc2)CC1 | 2.3 | 1.09 | 7270 | 0.7 | –
O=C(CCCc1c[nH]c2ccccc12)NCCC1CCN(Cc2ccccc2)CC1 | 3.9 | 12 | 1260 | 0.1 | –
Nc1nc2c(ncn2COCCO)c(=O)[nH]1 [ACYCLOVIR] | – | – | – | 0.1 | –
NC(=O)N1c2ccccc2C=Cc2ccccc21 [CARBAMAZEPINE] | – | – | – | 11.2 | Papp (in vitro [5]): 11.3 ×10⁻⁶ cm/s
CO/N=C(\C(=O)N[C@@H]1C(=O)N2C(C(=O)O)=C(CSc3nc(=O)c(=O)[nH]n3C)CS[C@H]12)c1csc(N)n1 [CEFTRIAXONE] | – | – | – | 0.1 | –
CN(C)CCCN1c2ccccc2Sc2ccccc21 [PROMAZINE] | 11.8 | – | – | – | –
Cn1cc(C(=O)NCCC2CCN(Cc3ccccc3)CC2)c2ccccc21 | 4.8 | 670 | 6110 | 4.6 | –
O=C(Cc1c[nH]c2ccc(Br)cc12)NCCC1CCN(Cc2ccccc2)CC1 | 5.8 | 0.68 | 1410 | 0.5 | inhibition (Rattus norvegicus [6]): Dose-dependent effect; inhibition in vivo at 80 mg/kg (Rattus norvegicus [7]): 15%; Activity (SH-SY5Y): Non-Toxic
O=c1ccc2ccccc2o1 [COUMARIN] | – | – | – | 19.3 | Papp (in vitro [5]): 22.1 ×10⁻⁶ cm/s
CN1C(C(=O)Nc2ccccn2)=C(O)c2ccccc2S1(=O)=O [PIROXICAM] | 0.1 | – | – | – | –
CNCCCN1c2ccccc2CCc2ccccc21 [DESIPRAMINE] | 11.4 | – | – | – | –
Cn1c(=O)c2c(ncn2C)n(C)c1=O [CAFFEINE] | 0.1 | – | – | – | –
Cn1cc(CC(=O)NCCC2CCN(Cc3ccccc3)CC2)c2ccccc21 | 7.3 | 0.25 | 1420 | 5.5 | –
O=C(Cc1c[nH]c2ccccc12)NCCC1CCN(Cc2ccccc2)CC1 | 2.4 | 0.87 | 3550 | 0.1 | inhibition (Cholinesterase [8]): Active; Activity [9]: Active; Activity [10]: Active; Activity [11]: Active; Activity [12]: Active; inhibition (Acetylcholinesterase [13]): Active
